The record followed here is US20250197831A1, “LACTASE SOLUTION” (GODO SHUSEI CO., LTD., priority 2021, published 2025).

SMILES strings stand for the structures. Where a name gives a salt, the structure may show the parent alone.

Data set [1] can be described thus: Filter permeability test of the lactase solution (slope −a of flux vs permeate). The class given is physicochemical. As to conditions: for Slope (−a) Before Shaking: immediately after preparation; for Slope (−a) After Shaking: shaken at 20° C., 30 mm, 100 spm, 1 hour. How it is done: The detailed conditions in this example of the filter permeability test will be described in detail below.
The following operation was performed in an environment of 5 to 15° C. • 1. A measuring apparatus, a lactase solution sample, and distilled water were cooled to the test environment temperature. • 2. The lactase solution sample was diluted with distilled water or concentrated by ultrafiltration to adjust the lactase activity to 16,000 to 17,500 U/g and mixed well. • 3. In the test, one in which a 25 nun stainless steel filter holder (manufactured by PALL Corporation, product number 1209 (effective membrane area: 3.7 cm^2)) is connected to a stainless steel holder with a 47 mm tank (Advantec Toyo Kaisha, Ltd., product name “KST-47”) was used as an apparatus. A sample permeating portion in the filter holder is configured to include an O-ring, a membrane, a support screen, and an underdrain disc from the measurement sample inlet side (in the test of the present invention, the filter of the stainless steel holder with the tank and the parts of the filter bolding portion (the support screen and the support thereof) were not attached). As the membrane, DURAPORE (product name) (pore diameter: 0.22 μm, φ25 mm, made of hydrophilic PVDF) manufactured by Merck Millipore was used, and as the support screen, Type 316 stainless steel attached to the filter holder was used. In addition, in order to adjust the permeation rate, four circular label stickers (manufactured by A-One Co., Ltd., product name A-one color label 07010) having a diameter of 0.9 cm were stuck symmetrically to an upper portion of the support screen (measurement sample inlet side) (effective membrane area: 1.26 cm^2), and a membrane filter (pore diameter: 0.22 μm) was set. The membrane was rinsed with a 50% glycerin aqueous solution and attached to the stainless steel filter holder. • 4. The lactase solution sample (sample) diluted in 2. was charged into the stainless steel holder with the tank. • 5. A pressure of 0.2 MPa was applied to the stainless steel holder with the tank using an air compressor (manufactured by Yaezaki Kuatsu Co., Ltd., product name “KAPSEL-CON YC-3R” or “PC4-15HLM”), and the enzyme solution was pumped. The permeate was received in a container such as a beaker, the amount of the permeate was recorded every 10 seconds, and (1) the permeation amount (permeate (kg/m^2)) and (2) the permeation rate (flux (kg/min×m^2)) per square meter of the membrane were determined by the following method. In addition, the slope a of an approximate curve y=ax+b obtained when (1) is plotted on the x axis and (2) is plotted on the y axis was determined.
Permeate (kg/m^2)=weight (g) of product that permeated at point n/(membrane radius (mm))×membrane radius (mm)×circumference ratio)(m^2)×1000 (1)
Flux (kg/min×m^2)=(permeate at point n−permeate at point (n−1))/(permeation time (min) at point n−permeation time (min) at point (n−1)) (2) • *n indicates a measurement point. In order to record the permeation amount for every 10 seconds, for example, when the point n is for the permeation amount or permeate at the time of permeation for 10 seconds, the point (n−1) is for the permeation amount of permeate at the time of permeation for 0 seconds.
(§1) A predetermined amount of a given additive was added to GODO-YNL2LS, and the slope (−a) showing filter permeability and the residual activity of lactase activity were measured.
Each lactase solution was obtained by adding the additive shown in the table in a predetermined amount to 60,000 U/g GODO-YNL2LS. […] The lactase activity of each lactase solution after storage at 50° C. for 3 days was measured.

Another data set has as its target T1, lactase (Kluyveromyces lactis, UniProt P00723).
T1 construct: purchased GODO SHUSEI CO., LTD; GODO-YNL2LS
Put plainly: Residual activity of lactase activity after storage. In kind it is physicochemical. As to conditions: for Residual Activity: storage at 50° C. for 3 days; for residual activity of lactase activity after storage (storage stability test): 0.005% and 0.01% in 60,000 U/g lactase solution, stored at 12° C. for 30 days. How it is done: In the following examples and the like, commercially available GODO-YNL2LS (manufactured by GODO SHUSEI CO., LTD.) was used as the lactase solution. […]
A diluted enzyme solution (0.5 mL) and 0.5 mL of a basic buffer (100 mM phosphate buffer (pH 6.5) containing 0.1 mM manganese chloride) are mixed, and the mixture is preheated at 37° C. for 3 minutes, and then, 1.0 mL of a 1.65 mM O-nitrophenyl-β-D-galactopyranoside (ONPG) aqueous solution is added thereto to cause a reaction at 37° C. for 1 minute. After 2.0 mL of a reaction stop solution (200 mM sodium carbonate) was added thereto, the absorbance at OD 420 nm was measured. One unit (U) is the enzyme activity that increases the OD […] by 1 from the substrate in 10 minutes.
as §1
Each lactase solution was obtained by adding the additive shown in the table in a predetermined amount to 60,000 U/g GODO-YNL2LS. Each lactase solution immediately after preparation was subjected to a filter permeability test and a lactase activity measurement by the above-mentioned methods. […]
In a container, 0.03 g of a saturated fatty acid and 1 mL of a 1 M aqueous sodium hydroxide solution were mixed, and 4 mL of distilled water was added thereto. The mixture was subjected to a saponification treatment in boiling water at 100° C. for 5 minutes, then left to cool to room temperature, and the reaction product was added to 294 g of a total amount of the lactase solution (GODO-YNL2LS) (addition amount: 0.01%). The filtrate obtained by filtering this was subjected to a filter permeability test and a residual activity of lactase activity.
In this example, 108 g of 99% glycerin was mixed with 0.03 g of the unsaturated fatty acid in a container. The mixture was added to 192 g of a total amount of the lactase solution (GODO-YNL2LS) (addition amount: 0.01%). The filtrate obtained by filtering this was subjected to a filter permeability test and a residual activity of lactase activity.

T1 sequence (P00723 whole entry): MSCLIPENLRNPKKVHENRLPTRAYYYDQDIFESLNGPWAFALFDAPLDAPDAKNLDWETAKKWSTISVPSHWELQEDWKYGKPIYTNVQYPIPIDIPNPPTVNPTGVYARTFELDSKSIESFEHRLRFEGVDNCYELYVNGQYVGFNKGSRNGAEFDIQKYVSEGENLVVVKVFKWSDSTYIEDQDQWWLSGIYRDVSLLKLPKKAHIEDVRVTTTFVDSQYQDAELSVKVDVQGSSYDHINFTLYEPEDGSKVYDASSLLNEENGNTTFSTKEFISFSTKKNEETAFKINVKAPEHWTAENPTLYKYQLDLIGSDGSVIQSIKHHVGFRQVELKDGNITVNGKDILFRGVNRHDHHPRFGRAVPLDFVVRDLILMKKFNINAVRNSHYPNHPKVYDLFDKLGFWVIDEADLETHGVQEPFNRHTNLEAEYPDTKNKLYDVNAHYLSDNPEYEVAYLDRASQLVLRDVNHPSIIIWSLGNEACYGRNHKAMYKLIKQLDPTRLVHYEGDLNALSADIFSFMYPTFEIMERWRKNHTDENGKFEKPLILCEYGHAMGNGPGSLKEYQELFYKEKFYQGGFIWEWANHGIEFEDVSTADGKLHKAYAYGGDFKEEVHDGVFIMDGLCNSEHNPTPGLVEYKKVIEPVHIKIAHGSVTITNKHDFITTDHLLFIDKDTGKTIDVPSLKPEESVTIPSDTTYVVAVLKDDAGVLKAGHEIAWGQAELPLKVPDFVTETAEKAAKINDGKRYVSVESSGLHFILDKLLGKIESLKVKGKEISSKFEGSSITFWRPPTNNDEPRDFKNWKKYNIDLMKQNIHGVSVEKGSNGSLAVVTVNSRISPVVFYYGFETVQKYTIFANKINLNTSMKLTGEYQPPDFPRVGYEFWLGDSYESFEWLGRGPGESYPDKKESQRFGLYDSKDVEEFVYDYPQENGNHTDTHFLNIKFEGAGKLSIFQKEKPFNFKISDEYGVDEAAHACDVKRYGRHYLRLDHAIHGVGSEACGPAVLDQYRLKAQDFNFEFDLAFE

Consider `C[N+](C)(C)CC(=O)O` [Betaine Hydrochloride], for which, in data set [1] (Table 2, addition amount 0.1, immediately after preparation), the “Slope Before Shaking” value was determined as 0.0291. At lactase (Table 2, addition amount 0.1), the “Residual Activity” value stood at 66.5%.

As for `N[C@@H](CS)C(=O)O` [Cysteine], at lactase (Table 2, addition amount 0.02), the “Residual Activity” value is listed as 1.1%.

For `CCCCC/C=C\C/C=C\CCCCCCCC(=O)O` [Linoleic Acid], the “Slope (−a) Before Shaking” value in data set [1] (additive 0.01 % in GODO-YNL2LS) is on record as 0.0265. Besides, the “Slope (−a) After Shaking” value in data set [1] (additive 0.01 %) is recorded as 0.0253. The “residual activity of lactase activity after storage (storage stability test)” value on lactase is listed as “practical level”. Further, at lactase (additive 0.01 %), the “Residual Activity” value was 61.1%.

As for `CCCCCCCCCC(=O)[O-].[Na+]` [Na Decanoate], in data set [1] (additive 0.01 % in GODO-YNL2LS), the “Slope (−a) Before Shaking” value is listed as 0.0228.

For `CCCCCCCCCCCC(=O)[O-].[Na+]` [Na Laurate], the “Slope (−a) Before Shaking” value in data set [1] (additive 0.01 % in GODO-YNL2LS) is reported as 0.0176. Besides, the “Slope (−a) After Shaking” value in data set [1] (additive 0.01 %) was determined as 0.0590.

Consider `CCCCCCCCCCCCCC(=O)[O-].[Na+]` [Na Myristate], for which the “Slope (−a) Before Shaking” value in data set [1] (additive 0.01 % in GODO-YNL2LS) is recorded as 0.0147. Moreover, at lactase (additive 0.01 %), the “Residual Activity” value is recorded as 70.7%.

In the case of `CCCCCCCC/C=C\CCCCCCCC(=O)[O-].[Na+]` [Na Oleate], the results for the “Slope (−a) Before Shaking” value in data set [1] (additive 0.005 % in GODO-YNL2LS) and in data set [1] (additive 0.1 % in GODO-YNL2LS) were 0.0243 and 0.0542, respectively. In addition, the “Slope (−a) After Shaking” value in data set [1] (additive 0.005 %) came out at 0.0216; in data set [1] (additive 0.1 %) it was 0.0405. Further, the entries for the “Residual Activity” value on lactase (additive 0.005 %) and on lactase (additive 0.01 %) were 64.3% and 71.4%, respectively.

Turning to `CCCCCCCCCCCCCCCC(=O)[O-].[Na+]` [Na Palmitate], the “Slope (−a) Before Shaking” value in data set [1] (additive 0.01 % in GODO-YNL2LS) is on record as 0.0200. For the same compound, the “Slope (−a) After Shaking” value in data set [1] (additive 0.01 %) was “deteriorated”. Besides, the “Residual Activity” value at lactase (additive 0.01 %) is reported as 61.5%.

Take `CCCCCCCCCCCCCCCCCC(=O)[O-].[Na+]` [Na Stearate]: the “Slope (−a) Before Shaking” value in data set [1] (additive 0.01 % in GODO-YNL2LS) came to 0.0273. The “Slope (−a) After Shaking” value in data set [1] (additive 0.01 %) is on record as “deteriorated”. Also, at lactase (additive 0.01 %), the “Residual Activity” value is 61.9%.

With `CCCCCCCC/C=C\CCCCCCCC(=O)O` [Oleic Acid], the “Slope (−a) Before Shaking” value in data set [1] (additive 0.01 % in GODO-YNL2LS) stood at 0.0272. Also, in data set [1] (additive 0.01 %), the “Slope (−a) After Shaking” value is 0.0407. At lactase, the “residual activity of lactase activity after storage (storage stability test)” value is listed as “practical level”. In addition, at lactase (additive 0.01 %), the “Residual Activity” value is 72.0%.

In the case of `N[C@@H](CCC(=O)N[C@@H](CS)C(=O)NCC(=O)O)C(=O)O` [Reduced Glutathione], at lactase (Table 2, addition amount 0.02), the “Residual Activity” value was 19.9%.
